# Test system: Rattus norvegicus
# Assay: Antihyperglycemic activity against streptozotocin-induced diabetic rat assessed as change in plasma glucose at 1 mM/kg, iv
# Format: functional
smiles,measurement,value
O=C(O)[C@H]1O[C@@H](Oc2cc(O)c3c(=O)cc(-c4ccc(O)c(O)c4)oc3c2)[C@H](O)[C@@H](O)[C@@H]1O,Activity,-25.54%
